Data taken from PubChem BioAssay (NCI).
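Grown in 96-well plates, cells were treated for 48 hours with each compound at five concentrations. Insufficient inhibition: endpoint recorded as highest concentration tested. At the GI50, growth is halved. TGI marks complete inhibition of growth.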

Experiments:
Assay in all cases: NCI anticancer screen, dose series, 48 h
EKVX NSCLC = tested on: EKVX NSCLC
SNB-75 CNS = tested on: SNB-75 CNS
SF-268 CNS = tested on: SF-268 CNS
LOX IMVI melanoma = tested on: LOX IMVI melanoma
SW-620 colon = tested on: SW-620 colon
TK-10 renal = tested on: TK-10 renal
KM12 colon = tested on: KM12 colon
MALME-3M melanoma = tested on: MALME-3M melanoma
DU-145 prostate = tested on: DU-145 prostate
MDA-MB-435 = tested on: MDA-MB-435

Compound | TGI (EKVX NSCLC) [µM] | TGI (SNB-75 CNS) [µM] | TGI (SF-268 CNS) [µM] | TGI (LOX IMVI melanoma) [µM] | TGI (SW-620 colon) [µM] | TGI (TK-10 renal) [µM] | TGI (KM12 colon) [µM] | TGI (MALME-3M melanoma) [µM] | GI50 (SNB-75 CNS) [µM] | GI50 (SF-268 CNS) [µM] | GI50 (LOX IMVI melanoma) [µM] | GI50 (SW-620 colon) [µM] | GI50 (TK-10 renal) [µM] | GI50 (DU-145 prostate) [µM] | TGI (DU-145 prostate) [µM] | GI50 (KM12 colon) [µM] | GI50 (EKVX NSCLC) [µM] | GI50 (MALME-3M melanoma) [µM] | GI50 (MDA-MB-435) [µM] | TGI (MDA-MB-435) [µM]
CC(=O)OC(C)(C)C[N+](=O)[O-] | > 100 | > 100 | > 100 | > 100 | > 100 | > 100 | > 100 | > 100 |  |  |  |  |  |  |  |  |  |  |  | 
CC1(C)C=C(N2CCN(C3=CC(C)(C)NC(C)(C)C3)CC2)CC(C)(C)N1 | > 100 | > 100 | > 100 | > 100 | > 100 | > 100 | > 100 |  |  |  |  |  |  |  |  |  |  |  |  | 
CC(O)(c1ccc(OCCC[N+](C)(C)C)cc1)C(C)(O)c1ccc(OCCC[N+](C)(C)C)cc1 (stereo not given) | > 100 | > 100 | > 100 | > 100 | > 100 |  | > 100 | > 100 |  |  |  |  |  |  |  |  |  |  |  | 
CCC1=CCC(P(=O)(c2ccccc2)c2ccccc2)CC1C (stereo not given) | > 100 | 49.7 | > 100 | > 100 | > 100 | > 100 | > 100 | > 100 |  |  |  |  |  |  |  |  |  |  |  | 
CCN(CC)CCCNc1nccc2c(C)c3[nH]c4ccncc4c(=O)c3cc12 | 35.7 | 12.6 | 4.46 | 3.26 | 16.1 | 22.5 | 15.5 | 14.8 |  |  |  |  |  |  |  |  |  |  |  | 
CCCCCCCCC1C(C)c2c([nH]c3ccccc23)C2C(=O)N(c3ccccc3)C(=O)C21 (stereo not given) | 51.1 | 39.9 |  |  | 41.5 | 37.1 | 13.5 | 39.1 |  |  |  |  |  |  |  |  |  |  |  | 
Cc1cc(=O)n2c(cc3cccccc32)n1 | > 100 | > 100 | > 100 | > 100 | > 100 | > 100 | > 100 |  |  |  |  |  |  |  |  |  |  |  |  | 
CCN(CC)CCNc1ccc(N=Nc2cnc3ccccc3c2)c2ccccc12 |  | 2.89 | 3.48 | 2.77 | 3.47 | 3.87 | 2.89 |  | 1.36 | 1.74 | 1.43 | 1.83 | 2.1 | 1.83 | 3.22 | 1.56 |  |  |  | 
C=C(C)C1CC=C(C)C(O)([C@@]2(O)C[C@H](C(=C)C)CC=C2C)C1 (stereo not given in full) |  | 54.2 | > 100 | 26.9 | > 100 | > 100 | 43.4 | 81.8 |  |  |  |  |  |  |  |  |  |  |  | 
c1ccc(N2CCN(CCCN3CCc4c([nH]c5ccccc45)C3c3cccnc3)CC2)cc1 (stereo not given) | > 100 | > 100 |  | > 100 | > 100 | > 100 | > 100 | > 77.3 |  |  |  |  |  |  |  |  |  |  |  | 
Cc1nccc2c3ccc(OCc4cn(-c5ccc(Br)cc5)nn4)cc3n(CCCc3ccccc3)c12 | > 100 | 3.98 | 5.85 |  |  | 3.29 | > 100 | 3.57 | 1.54 | 2.17 |  |  | 1.62 | 5.2 | > 100 | 2.73 | > 100 | 1.62 |  | 
CCCc1nn(C)c(CCC(=O)N(Cc2ccccc2)Cc2ccccc2)c1CC | > 100 | > 100 | > 100 | > 100 | > 100 | > 100 | > 100 | > 100 |  |  |  |  |  |  |  |  |  |  |  | 
C=C1CCCC2OC(OC)CCC12 (stereo not given) | > 100 | > 100 | > 100 |  | > 100 | > 100 | > 100 | > 100 |  |  |  |  |  |  |  |  |  |  |  | 
CC1=C(C(=O)Nc2ccccc2C)C(c2ccccc2O)C(C(=O)Nc2ccccc2C)=C(C)N1 | > 100 | 65.8 | 70.1 | 44.6 | > 100 | 86 | 31.2 | 92.4 |  |  |  |  |  |  |  |  |  |  |  | 
O=C1C(c2ccccc2)=[N+]([O-])c2cc([N+](=O)[O-])ccc21 | 34.5 | > 100 | 46.9 | 28.6 | > 100 | 52.4 | 47.5 | 36.1 |  |  |  |  |  |  |  |  |  |  |  | 
CC1OC(OC2C(O)C(OCCc3ccc(O)c(O)c3)OC(CO)C2OC(=O)/C=C/c2ccc(O)c(O)c2)C(O)C(O)C1O (stereo not given) | > 100 |  | > 100 | 36 | 72 | > 100 | > 100 |  |  | > 100 | 18.2 | 28.7 | > 100 | 13.5 | 27.4 | > 100 | 27.6 |  | 39.7 | > 100
O=C(CC1(O)C(=O)Nc2c(Cl)cc(Cl)cc21)c1ccc([N+](=O)[O-])cc1 (stereo not given) | > 61.9 | > 87.6 | > 100 | > 100 | > 63 | > 100 | > 100 | > 60.7 |  |  |  |  |  |  |  |  |  |  |  | 

Compound | TGI (EKVX NSCLC) [µM] | TGI (SNB-75 CNS) [µM] | TGI (SF-268 CNS) [µM] | TGI (LOX IMVI melanoma) [µM] | TGI (SW-620 colon) [µM] | TGI (TK-10 renal) [µM] | TGI (KM12 colon) [µM] | TGI (MALME-3M melanoma) [µM] | GI50 (SNB-75 CNS) [µM] | GI50 (SF-268 CNS) [µM] | GI50 (LOX IMVI melanoma) [µM] | GI50 (SW-620 colon) [µM] | GI50 (TK-10 renal) [µM] | GI50 (DU-145 prostate) [µM] | TGI (DU-145 prostate) [µM] | GI50 (KM12 colon) [µM] | GI50 (EKVX NSCLC) [µM] | GI50 (MALME-3M melanoma) [µM] | GI50 (MDA-MB-435) [µM] | TGI (MDA-MB-435) [µM]
Nc1nc(N)c(CCCCc2ccccc2)c(/C=C/c2ccc([N+](=O)[O-])cc2)n1 | > 100 | 9.87 | 48.2 | 13.5 | 5.91 | 6.72 | 10.8 | 9.17 |  |  |  |  |  |  |  |  |  |  |  | 
COC(=O)/C(=N\Nc1nc(=S)[nH]n1N)C(C#N)c1ccc(Cl)cc1 (stereo not given) | > 100 | > 100 | > 100 | > 100 | > 100 | > 100 | > 100 | > 100 |  |  |  |  |  |  |  |  |  |  |  | 
O=c1oc2c(O)c(O)cc3c(=O)oc4c(O)c(O)cc1c4c23 | > 100 | 90.3 | > 100 | > 100 | > 100 | > 100 | > 100 |  |  |  |  | > 100 |  |  |  | > 100 |  |  |  | 
Cc1ccc(-c2nc3ccccc3c(=O)n2NC2OC(CO)C(O)C(O)C2O)cc1 (stereo not given) | > 100 | > 100 | > 100 |  | > 100 | > 100 | > 100 | > 100 |  |  |  |  |  |  |  |  |  |  |  | 
CC(Oc1ccc2c(=O)cc(-c3ccccc3)oc2c1)C(=O)O (stereo not given) | > 100 | > 100 | > 100 | > 100 | > 100 | > 100 | > 100 | > 100 |  |  |  |  |  |  |  |  |  |  |  | 
CSC(=NC(=O)c1ccccc1)SCCSC(=NC(=O)c1ccccc1)SC | > 100 | > 100 | > 100 | > 100 | > 100 | > 100 | > 100 | > 100 |  |  |  |  |  |  |  |  |  |  |  | 
CC1(C)C2=CCCC(=O)[C@@]2(C)CC[C@@H]1O | > 100 | > 100 | > 100 | > 100 | > 100 | > 100 | > 100 |  |  |  |  |  |  |  |  |  |  |  |  | 
CN(CCc1ccccn1)/[N+]([O-])=N/O (tested in a mixture with another compound) | > 100 | > 100 | > 100 |  | > 100 |  | > 100 | > 100 |  |  |  |  |  |  |  |  |  |  |  | 
CCc1cc2c(Nc3ccccc3)c3c(nc2s1)CCCC3 | > 100 | 39.1 | > 100 | 42 | > 100 | > 100 | > 100 | > 100 |  |  |  |  |  |  |  |  |  |  |  | 
CC[C@@]1(O)C(=O)OCc2c1cc1n(c2=O)Cc2cc3cccc(N)c3nc2-1 | > 100 | 16.1 | > 100 | 37.2 |  | > 100 | > 100 | > 100 | 2.72 | 2.51 | 4.19 |  | > 100 |  |  | > 100 | 33 | 84.5 |  | 
CCOP(=O)(OCC)C(NC(c1ccccc1)c1ccccc1)c1ccsc1 (stereo not given) | 41.6 |  | 36.2 |  | 61.5 | 32.2 | 37.5 |  |  | 15.5 |  | 29.2 | 16.1 | 19.1 | 35.5 | 16.7 | 21.7 |  | 21.2 | 39.7
CC(/C=C1\CCC(CN(C)C)C1=O)c1cccc(Br)c1 (stereo not given) | 42 |  | 43.7 |  | 26.2 | 30.6 | 23.9 | 32.4 |  |  |  |  |  |  |  |  |  |  |  | 
NS(=O)(=O)c1ccc(-n2nc(-c3ccccc3)cc2-c2cc(O)ccc2O)cc1 | > 100 |  | > 100 | 63.2 | > 100 | 95.2 | > 100 |  |  | > 100 | 27.7 | > 100 | 35.9 |  |  | 38.5 | > 100 |  | 92.1 | > 100
CCCCCCCCCCCCCP(=O)(OC)OC | 39.5 | 38.1 |  | 35.3 | 32.4 | 31.6 | 31.9 | 38.3 |  |  |  |  |  |  |  |  |  |  |  | 
CCCCCC1CC=CC(NC(=O)OCc2ccccc2)C1/C=C/CCCC1OCCO1 (stereo not given) | > 100 | > 100 | > 100 | > 100 | > 100 | > 100 | > 100 | > 100 |  |  |  |  |  |  |  |  |  |  |  | 
COC(=O)/C=C(C)/C=C/c1c(C)c(C(C)=O)c(C)n1C | > 100 |  | > 100 | > 100 | > 100 | > 100 | > 100 | > 100 |  |  |  |  |  |  |  |  |  |  |  | 
CC(=O)CCn1[nH]c(=O)c(Cl)c(Cl)c1=O | > 100 | > 100 | > 100 | > 100 | 45.3 | > 100 | > 100 | > 100 |  |  |  |  |  |  |  |  |  |  |  | 
